Laboratory results from patent US6914045B2, “Glycopeptide antibiotics” (Wyeth Holdings Corporation, priority 2001, dated 2005).
In brackets after ≈: the same amount, converted by molar mass.

Assays:
Experiment in all cases: in vitro antibacterial evaluation, MIC by broth dilution
Assay type in all cases: cell-based
Enterococcus sp. = details: broth dilution, 18 hours at 35° C.; for MIC Enterococcus faecalis (ATCC 29212): strain ATCC 29212; for MIC Enterococcus faecalis (GC 2242): strain GC 2242; for MIC Enterococcus faecium (GC 2243): strain GC 2243; for MIC Enterococcus faecalis (GC 2691): strain GC 2691; for MIC Enterococcus faecalis (GC 3059): strain GC 3059; for MIC Enterococcus faecalis (GC 4552): strain GC 4552; for MIC Enterococcus faecalis (GC 4553): strain GC 4553; for MIC Enterococcus faecalis (GC 4554): strain GC 4554; for MIC Enterococcus faecium (GC 4556): strain GC 4556; for MIC Enterococcus faecium (GC 4557): strain GC 4557; for MIC Enterococcus avium (GC 4558): strain GC 4558; for MIC Enterococcus faecalis (GC 6189): strain GC 6189
Summary of the method: (§1)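 Broth dilution per NCCLS standard M7-A2 in Muller-Hinton II […], with an inoculum of 5×10^5 CFU/mL and antibiotic spanning 64-0.06 μg/mL. The MIC is the lowest concentration that inhibits growth of the organism.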

Streptococcus sp. = details: broth dilution, 18 hours at 35° C.; for MIC Streptococcus pneumoniae (ATCC 6301): strain ATCC 6301; for MIC Streptococcus pneumoniae (GC 1894): strain GC 1894; for MIC Streptococcus pyogenes (GC 4563): strain GC 4563; for MIC Streptococcus agalactiae (GC 4564): strain GC 4564; for MIC Streptococcus pneumoniae (GC 4565): strain GC 4565
Summary of the method: as §1

Staphylococcus sp. = details: broth dilution, 18 hours at 35° C.; for MIC Staphylococcus aureus (GC 1131): strain GC 1131
Summary of the method: as §1

Escherichia coli = test system: Escherichia coli
Summary of the method: as §1

Compound: CC(c1ccccc1)C1NC(=O)CNC(=O)C(CO)NC(=O)C(C(O)C2CNC(=N)N2C2OC(CO)C(O)C(O)C2O)NC(=O)C(C(O)C2CNC(=N)N2)NC(=O)C(Cc2ccc(OC3OC(CO)C(OC4OC5COC(c6cccc(OCc7ccc([N+](=O)[O-])cc7)c6)OC5C(O)C4O)C(O)C3O)cc2)NC1=O (centres unmarked) [Example 182]
- MIC Enterococcus faecalis (ATCC 29212) (Enterococcus sp.; inoculum 5×10^5 CFU/mL): >64 µg/mL
- MIC Enterococcus faecalis (GC 2242) (Enterococcus sp.; inoculum 5×10^5 CFU/mL): >64 µg/mL
- MIC Enterococcus faecium (GC 2243) (Enterococcus sp.; inoculum 5×10^5 CFU/mL): >64 µg/mL
- MIC Enterococcus faecalis (GC 2691) (Enterococcus sp.; inoculum 5×10^5 CFU/mL): >64 µg/mL
- MIC Enterococcus faecalis (GC 3059) (Enterococcus sp.; inoculum 5×10^5 CFU/mL): >64 µg/mL
- MIC Enterococcus faecalis (GC 4552) (Enterococcus sp.; inoculum 5×10^5 CFU/mL): >64 µg/mL
- MIC Enterococcus faecalis (GC 4553) (Enterococcus sp.; inoculum 5×10^5 CFU/mL): >64 µg/mL
- MIC Enterococcus faecalis (GC 4554) (Enterococcus sp.; inoculum 5×10^5 CFU/mL): >64 µg/mL
- MIC Enterococcus faecium (GC 4556) (Enterococcus sp.; inoculum 5×10^5 CFU/mL): >64 µg/mL
- MIC Enterococcus faecium (GC 4557) (Enterococcus sp.; inoculum 5×10^5 CFU/mL): >64 µg/mL
- MIC Enterococcus avium (GC 4558) (Enterococcus sp.; inoculum 5×10^5 CFU/mL): >64 µg/mL
- MIC Enterococcus faecalis (GC 6189) (Enterococcus sp.; inoculum 5×10^5 CFU/mL): >64 µg/mL
- MIC Enterococcus faecalis (ATCC 29212) (Enterococcus sp.): >64 µg/mL
- MIC Enterococcus faecalis (GC 2242) (Enterococcus sp.): >64 µg/mL
- MIC Enterococcus faecium (GC 2243) (Enterococcus sp.): >64 µg/mL
- MIC Enterococcus faecalis (GC 2691) (Enterococcus sp.): >64 µg/mL
- MIC Enterococcus faecalis (GC 3059) (Enterococcus sp.): >64 µg/mL
- MIC Enterococcus faecalis (GC 4552) (Enterococcus sp.): >64 µg/mL
- MIC Enterococcus faecalis (GC 4553) (Enterococcus sp.): >64 µg/mL
- MIC Enterococcus faecalis (GC 4554) (Enterococcus sp.): >64 µg/mL
- MIC Enterococcus faecium (GC 4556) (Enterococcus sp.): >64 µg/mL
- MIC Enterococcus faecium (GC 4557) (Enterococcus sp.): >64 µg/mL
- MIC Enterococcus avium (GC 4558) (Enterococcus sp.): >64 µg/mL
- MIC Enterococcus faecalis (GC 6189) (Enterococcus sp.): >64 µg/mL
- MIC Streptococcus pneumoniae (ATCC 6301) (Streptococcus sp.; inoculum 5×10^5 CFU/mL): 4 µg/mL (≈ 2.61 µM)
- MIC Streptococcus pneumoniae (GC 1894) (Streptococcus sp.; inoculum 5×10^5 CFU/mL): 8 µg/mL (≈ 5.21 µM)
- MIC Streptococcus pyogenes (GC 4563) (Streptococcus sp.; inoculum 5×10^5 CFU/mL): 64 µg/mL (≈ 41.7 µM)
- MIC Streptococcus agalactiae (GC 4564) (Streptococcus sp.; inoculum 5×10^5 CFU/mL): 32 µg/mL (≈ 20.9 µM)
- MIC Streptococcus pneumoniae (GC 4565) (Streptococcus sp.; inoculum 5×10^5 CFU/mL): 8 µg/mL (≈ 5.21 µM)
- MIC Streptococcus pneumoniae (ATCC 6301) (Streptococcus sp.): 4 µg/mL (≈ 2.61 µM)
- MIC Streptococcus pneumoniae (GC 1894) (Streptococcus sp.): 8 µg/mL (≈ 5.21 µM)
- MIC Streptococcus pyogenes (GC 4563) (Streptococcus sp.): 64 µg/mL (≈ 41.7 µM)
- MIC Streptococcus agalactiae (GC 4564) (Streptococcus sp.): 32 µg/mL (≈ 20.9 µM)
- MIC Streptococcus pneumoniae (GC 4565) (Streptococcus sp.): 8 µg/mL (≈ 5.21 µM)
- MIC Staphylococcus aureus (GC 1131) (Staphylococcus sp.; inoculum 5×10^5 CFU/mL): >64 µg/mL
- MIC Staphylococcus aureus (ATCC 29213) (Staphylococcus sp.; strain ATCC 29213): >64 µg/mL
- MIC Staphylococcus aureus (GC 1131) (Staphylococcus sp.): >64 µg/mL
- MIC Staphylococcus aureus (GC 3051) (Staphylococcus sp.; strain GC 3051): >64 µg/mL
- MIC Staphylococcus aureus (GC 3053) (Staphylococcus sp.; strain GC 3053): >64 µg/mL
- MIC Staphylococcus aureus (GC 4541) (Staphylococcus sp.; strain GC 4541): >64 µg/mL
- MIC Staphylococcus aureus (GC 4542) (Staphylococcus sp.; strain GC 4542): >64 µg/mL
- MIC Staphylococcus aureus (GC 4544) (Staphylococcus sp.; strain GC 4544): >64 µg/mL
- MIC Staphylococcus aureus (GC 4545) (Staphylococcus sp.; strain GC 4545): >64 µg/mL
- MIC Staphylococcus aureus-SMITH (GC 4543) (Staphylococcus sp.; strain GC 4543): >64 µg/mL
- MIC Staphylococcus haemolyticus (GC 4546) (Staphylococcus sp.; strain GC 4546): >64 µg/mL
- MIC Coagulase Negative Staphylococcus (GC 4547) (Staphylococcus sp.; strain GC 4547): >64 µg/mL
- MIC Coagulase Negative Staphylococcus (GC 4548) (Staphylococcus sp.; strain GC 4548): >64 µg/mL
- MIC Coagulase Negative Staphylococcus (GC 4549) (Staphylococcus sp.; strain GC 4549): >64 µg/mL
- MIC Coagulase Negative Staphylococcus (GC 4551) (Staphylococcus sp.; strain GC 4551): >64 µg/mL
- MIC Coagulase Negative Staphylococcus (GC 6257) (Staphylococcus sp.; strain GC 6257): >64 µg/mL
- MIC Escherichia coli (ATCC 25922) (Escherichia coli; strain ATCC 25922, 18 hours at 35° C.): >64 µg/mL
- MIC Escherichia coli (GC 4559) (Escherichia coli; strain GC 4559, 18 hours at 35° C.): >64 µg/mL
- MIC Escherichia coli (GC 4560) (Escherichia coli; strain GC 4560, 18 hours at 35° C.): >64 µg/mL
